Test results from patent US20260248800A1, “FERROPTOSIS INHIBITORS AND USES THEREOF” (UNIVERSITY OF OTTAWA, priority 2022, published 2026).
Where two headings read alike, the source gives them in different places. Marks after values point to notes of the source that are not given here.

Assays:
[1] = MeOAMVN-initiated co-autoxidation of STY-BODIPY and egg PC liposomes (FENIX); type: biochemical; settings: for n (radical-trapping stoichiometry): MeOAMVN-initiated co-autoxidation of STY-BODIPY and egg PC liposomes
[2] = Liver microsome stability assay; settings: pH 7.4
[3] = system: Pfa-1 mouse embryonic fibroblasts (MEFs); assay: cells; settings: Fibroblast
[4] = H-bond acidity (α2^H) of the RTA by 1H NMR; type: physicochemical; settings: estimated from the 1H NMR chemical shift difference of the amine proton in DMSO-d6 and benzene-d6
[5] = at 37° C. in PhCl; literature; cited from earlier work
[6] = system: Pfa-1 mouse embryonic fibroblasts (MEFs)
[7] = mouse, microsomes
MEFs = settings: inhibition of RSL3-induced ferroptosis in MEFs; Shah et al., 2017; cited from earlier work
[8] = in dilinoleoyl phosphatidylcholine (PC) liposomes; cited from earlier work
[9] = inhibited autoxidation of styrene in chlorobenzene; cited from earlier work
[10] = apparent inhibition rate constant, MeOAMVN-initiated autoxidation of egg PC liposomes, determined by absorbance (STY-BODIPY 10-20 μM, 565 nm)
[11] = 5 h, read-out: Pfa-1 MEF Ferroptosis EC50, RSL3-induced cell death (150 nM for 5 hours), AquaBluer
[12] = Table 6, from survival curve of RSL3 induced ferroptosis of pfa-1 MEFS
[13] = RSL3-induced cell death (150 nM for 5 hours), AquaBluer
[14] = apparent inhibition rate constant, MeOAMVN-initiated autoxidation of egg PC liposomes, determined by fluorescence
[15] = read-out: Pfa-1 MEF Ferroptosis EC50, RSL3-induced cell death (150 nM for 5 hours), AquaBluer
[16] = measured in MeOAMVN-initiated autoxidation of egg PC liposomes
[17] = predicted from log kinh^0, α2^H and β2^H=0.69 using Eq. 4 (too reactive to be determined directly)

c1ccc2c(c1)Nc1ccccc1S2 [Compound 2, phenothiazine, reference compound]
n (radical-trapping stoichiometry) [1]: 1.9 ± 0.1
kinh^lip [1, 10]: (110 ± 20)^e 10^5 M^−1s^−1
half-life at 10 μM ([2]; BALB/c, mouse, liver microsomes): 11.5 min
EC50 [3, 11]: 24 ± 1 nM
EC50 [3, 12]: 24 ± 1 nM
α2^H [4]: 0.38
kinh [5]: ~ 8×10^6 M^−1s^−1

CC(C)(C)c1ccc2c(c1)Oc1ccc(C(F)(F)F)cc1N2 [Compound 7, 3-tert-Butyl-8-trifluoromethylphenoxazine]
Pfa-1 MEF Ferroptosis EC50 [6, 13]: single-digit nanomolar potency
n (radical-trapping stoichiometry) [1]: 2.8 ± 0.1
kinh^lip [1, 14]: (75 ± 13) 10^5 M^−1s^−1
EC50 [3, 11]: 4.1 ± 0.1 nM
EC50 [3, 12]: 4.1 ± 0.1 nM

CC(C)(C)c1ccc2c(c1)Nc1cc(C(F)(F)F)ccc1O2 [Compound 8, 2-tert-Butyl-8-trifluoromethylphenoxazine]
Pfa-1 MEF Ferroptosis EC50 [6, 13]: single-digit nanomolar potency
n (radical-trapping stoichiometry) [1]: 2.3 ± 0.1
kinh^lip [1, 14]: (64 ± 9) 10^5 M^−1s^−1
EC50 [3, 11]: 5.6 ± 0.3 nM
EC50 [3, 12]: 5.6 ± 0.3 nM

CC(c1ccc2c(c1)Nc1ccc(C(F)(F)F)cc1O2)S(=O)(=O)N1CCNCC1 (stereo not shown) [Compound 46, 2-(1-(piperazin-1-ylsulfonyl)ethyl)-7-(trifluoromethyl)-OH-phenoxazine]
Pfa-1 MEF Ferroptosis EC50 [6, 13]: single-digit nanomolar potency
EC50 [3, 11]: 3 ± 0.1 nM
EC50 [3, 12]: 3 ± 0.1 nM

FC(F)(F)c1ccc2c(c1)Nc1ccccc1S2 [Compound 25, reference compound]
EC50 [6, 15]: 16 ± 1 nM
n (radical-trapping stoichiometry) [1]: 2.5 ± 0.1
kinh^lip [1, 14]: (19 ± 1) 10^5 M^−1s^−1
α2^H [4]: 0.44

CCOC(=O)c1ccc(NC2CCCCC2)c(N)c1 [Fer-1, ferrostatin-1]
EC50 [6, 12]: 27 ± 2 nM
EC50 [6, 15]: 27 nM
t1/2 [7]: 5.3 ± 0.1 min
EC50 (MEFs): 45 nM
kinh [5]: 300000 M⁻¹ s⁻¹

O=[N+]([O-])c1ccc2c(c1)Sc1cc([N+](=O)[O-])ccc1N2 [Compound 29, 3,7-Dinitrophenothiazine, reference compound]
EC50 [6, 15]: ≥ 1000 nM
kinh^lip [1, 14]: (0.41 ± 0.04) 10^5 M^−1s^−1
kinh^lip [1, 16]: 400 M⁻¹ s⁻¹
EC50 [3, 11]: > 1000 nM
viability at 1000 µM ([3]; read-out: apparent cell viability): ~50%
α2^H [4]: 0.62

Clc1cccc(CN=C2Nc3ccccc3NC23CCNCC3)c1 [Lip-1, liproxstatin-1]
EC50 [6, 12]: 18 ± 1 nM
EC50 [6, 15]: 18 nM
EC50 (MEFs): 35 nM
t1/2 ([2]; BALB/c mouse liver microsomes increased (1.0 mg/mL), 1 mM NADPH, 37° C., 10 μM compound (Verapamil 1 μM)): (133 ± 8.4) ^d min
kinh [5]: 200000 M⁻¹ s⁻¹

c1ccc2c(c1)Nc1ccccc1O2 [Compound 1, phenoxazine, reference compound]
n (radical-trapping stoichiometry) [1]: 2.0 ± 0.1
kinh^lip [1, 10]: (232 ± 23)^e 10^5 M^−1s^−1
kinh^lip [1, 16]: 220000 M⁻¹ s⁻¹
EC50 (MEFs): 9 nM
EC50 [3]: 16 ± 1 nM
EC50 ([3]; 5 h, read-out: Pfa-1 MEF Ferroptosis EC50): 16 nM
α2^H [4]: 0.44
kinh [5]: ~ 4×10^7 M^−1s^−1

FC(F)(F)c1ccc2c(c1)Nc1ccccc1O2 [Compound 6, 2-trifluoromethylphenoxazine]
EC50 [6, 15]: 8.8 ± 0.5 nM
n (radical-trapping stoichiometry) [1]: 3.0 ± 0.1
kinh^lip [1, 14]: (75 ± 11) 10^5 M^−1s^−1
EC50 [3, 11]: 9 nM
α2^H [4]: 0.51

N#Cc1ccc2c(c1)Oc1cc([N+](=O)[O-])ccc1N2 [Compound 23, 3-cyano-7-nitrophenoxazine]
kinh^lip [1, 10]: (1.6 ± 0.1)^e 10^5 M^−1s^−1
EC50 [3, 11]: 455 ± 19 nM
α2^H [4]: 0.69

Cc1c(C)c2c(c(C)c1O)CCC(C)(C)O2 [PMC, 2,2,5,7,8-Pentamethyl-6-chromanol, reference compound]
n (radical-trapping stoichiometry) [1]: (2)
kinh^lip [1, 14]: (29 ± 2) 10^5 M^−1s^−1
kinh^lip (predicted/estimated) ([1]; estimated from kinh^0 and effective β2^H of egg PC liposomes): 35000 M⁻¹ s⁻¹
kinh^lip [1, 16]: 29000 M⁻¹ s⁻¹
EC50 [3, 11]: 360 ± 30 nM
α2^H [4]: 0.38

CC(C)(C)c1ccc2c(c1)Oc1cc(C(F)(F)F)ccc1N2 [Compound 10, 3-tert-Butyl-7-trifluoromethylphenoxazine]
Pfa-1 MEF Ferroptosis EC50 [6, 13]: single-digit nanomolar potency
n (radical-trapping stoichiometry) [1]: 2.8 ± 0.1
kinh^lip [1, 14]: (55 ± 10) 10^5 M^−1s^−1
EC50 [3, 11]: 5.2 ± 0.2 nM
EC50 [3, 12]: 5.2 ± 0.2 nM

CCN(CC)c1ccc2c(c1)Oc1cc([N+](=O)[O-])ccc1N2 [Compound 18, N,N-diethyl-3-amine-7-nitrophenoxazine]
n (radical-trapping stoichiometry) [1]: 2.4 ± 0.4
kinh^lip [1, 10]: (177 ± 37)^e 10^5 M^−1s^−1
EC50 [3, 11]: 14 ± 2 nM
α2^H [4]: 0.58

CC(C)(C)c1ccc2c(c1)Nc1ccc(C(F)(F)F)cc1O2 [Compound 11, 2-tert-Butyl-7-trifluoromethylphenoxazine]
Pfa-1 MEF Ferroptosis EC50 [6, 13]: single-digit nanomolar potency
n (radical-trapping stoichiometry) [1]: 2.6 ± 0.1
kinh^lip [1, 14]: (44 ± 3) 10^5 M^−1s^−1
EC50 [3, 11]: 3.6 ± 0.2 nM
EC50 [3, 12]: 3.6 ± 0.2 nM

Clc1ccc2c(c1)Nc1ccccc1S2 [Compound 24, reference compound]
EC50 [6, 15]: 56 ± 10 nM
n (radical-trapping stoichiometry) [1]: 2.1 ± 0.1
kinh^lip [1, 14]: (39 ± 4) 10^5 M^−1s^−1
α2^H [4]: 0.43

Cc1ccc2c(c1)Oc1cc(C)ccc1N2 [Compound 35, 3,7-Dimethylphenoxazine]
EC50 [6, 15]: 5.4 ± 0.2 nM
kinh^lip [1, 17]: 1180 ^f 10^5 M^−1s^−1
predicted increase in kinh^lip relative to PNX ([1]; predicted/estimated kinh^lip vs PNX): 5.1 fold
EC50 [3, 11]: 6 nM
α2^H [4]: 0.41

CC(c1ccc2c(c1)Nc1ccc(C(F)(F)F)cc1O2)S(=O)(=O)NCCN(C)C (stereo not shown) [Compound 44, N-(2-(dimethylamino)ethyl)-1-(7-(trifluoromethyl)-10H-phenoxazin-2-yl)ethanesulfonamide]
Pfa-1 MEF Ferroptosis EC50 [6, 13]: single-digit nanomolar potency
EC50 [3, 11]: 2.2 ± 0.1 nM
EC50 [3, 12]: 2.2 ± 0.1 nM

c1ccc2c(c1)Nc1cc3ccccc3cc1S2 [Compound 5, 12H-Benzo[b]phenothiazine, reference compound]
n (radical-trapping stoichiometry) [1]: 1.9 ± 0.1
kinh^lip [1, 14]: (51 ± 3) 10^5 M^−1s^−1
EC50 [3, 11]: 7.8 ± 0.2 nM
α2^H [4]: 0.40

Cc1c(C)c2c(c(C)c1O)CC[C@@](C)(CCC[C@H](C)CCC[C@H](C)CCCC(C)C)O2 [α-TOH, α-tocopherol]
kinh [8]: 6000 M⁻¹ s⁻¹
kinh [9]: 3e+06 M⁻¹ s⁻¹

Cc1cc(C)c2c(c1)Nc1cc(C)cc(C)c1O2 [Compound 37, 2,4,6,8-Tetramethylphenoxazine]
kinh^lip [1, 17]: 1500 ^f 10^5 M^−1s^−1
EC50 [3, 11]: 9.6 ± 0.2 nM
α2^H [4]: 0.39
